From patent US11472803B2, “7-substituted 1-aryl-naphthyridine-3-carboxylic acid amides and use thereof” (Bayer Aktiengesellschaft, priority 2016, dated 2022) come the findings set out here.

The target in this assay is T1, human M2 receptor (Homo sapiens, UniProt P08172).
T1 construct: expressed in transfected cells; host or cells: CHO-DUKX (CHO-DUKX-M2-GIRK)
T1 sequence (P08172 1-466): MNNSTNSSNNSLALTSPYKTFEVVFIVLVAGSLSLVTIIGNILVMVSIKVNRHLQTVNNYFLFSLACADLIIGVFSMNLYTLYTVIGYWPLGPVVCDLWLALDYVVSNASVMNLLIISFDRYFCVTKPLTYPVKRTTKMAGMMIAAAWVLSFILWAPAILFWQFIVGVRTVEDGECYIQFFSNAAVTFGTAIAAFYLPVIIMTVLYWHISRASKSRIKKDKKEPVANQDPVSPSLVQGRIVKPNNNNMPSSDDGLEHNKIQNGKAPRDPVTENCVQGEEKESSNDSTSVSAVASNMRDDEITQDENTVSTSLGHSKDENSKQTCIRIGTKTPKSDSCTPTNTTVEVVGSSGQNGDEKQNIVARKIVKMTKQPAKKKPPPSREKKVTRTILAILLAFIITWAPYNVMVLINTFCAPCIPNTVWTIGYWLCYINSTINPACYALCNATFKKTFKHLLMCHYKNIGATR
The assay can be described thus: Functional M2-GIRK1/4 activation test: allosteric potency (EC50) and efficiency at EC20 acetylcholine. The format is cell-based. Conditions: CHO-DUKX-M2-GIRK cells; for EC50: voltage-sensitive dye, acetylcholine at EC20, in some cases mean of two or more determinations. The gist of the method:
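CHO-DUKX cells stably expressing human M2 and GIRK1/4; membrane potential tracked with voltage-sensitive dye at room temperature. Compound added 50 s before acetylcholine at its EC20, then hyperpolarization read 60 s. EC50 (allosteric potency) and efficiency (boost of EC20 ACh effect) from 4-parameter Hill fit.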

[1] abbreviates: boosting of the acetylcholine effect at EC20 acetylcholine concentration.

Take `C[C@@H](NC(=O)c1cn(-c2c(F)cc(F)cc2Cl)c2nc(N3C[C@@H](O)[C@H](O)C3)c(F)cc2c1=O)C1CC1` [Example 44, 1-(2-chloro-4,6-difluorophenyl)-N-[(1R)-1-cyclopropylethyl]-7-[(3R,4R)-3,4-dihydroxypyrrolidin-1-yl]-6-fluoro-4-oxo-1,4-dihydro-1,8-naphthyridine-3-carboxamide]: a half-maximal effect (EC50) was put at 12 nM. This compound displayed a maximal effect (Emax) under setting [1] of 100%.
As to `CC[C@H](NC(=O)c1cn(-c2c(F)cc(F)cc2Cl)c2nc(N3C[C@@H](O)[C@H](O)C3)c(F)cc2c1=O)C(F)(F)F` (single isomer, unassigned) [Example 47], the EC50 came to 48 nM. Also, under setting [1], the Emax is 81%.
As for `CC(NC(=O)c1cn(-c2c(F)cc(F)cc2F)c2nc(N3C[C@@H](O)[C@H](O)C3)c(Br)cc2c1=O)C(F)(F)C(F)(F)F` (stereo partly drawn) [Example 158, 6-Bromo-7-[(3R,4R)-3,4-dihydroxypyrrolidin-1-yl]-4-oxo-N-[3,3,4,4,4-pentafluorobutan-2-yl]-1-(2,4,6-trifluorophenyl)-1,4-dihydro-1,8-naphthyridine-3-carboxamide], the EC50 stood at 3.7 nM. Under setting [1], this compound displayed an Emax of 100%.
The compound `CC(C)C(COC(F)(F)F)NC(=O)c1cn(-c2c(F)cc(F)cc2F)c2nc(N3C[C@@H](O)[C@H](O)C3)c(F)cc2c1=O` (mixture of isomers) [Example 233, 7-[(3R,4R)-3,4-dihydroxypyrrolidin-1-yl]-6-fluoro-N-[3-methyl-1-(trifluoromethoxy)butan-2-yl]-4-oxo-1-(2,4,6-trifluorophenyl)-1,4-dihydro-1,8-naphthyridine-3-carboxamide] yielded an EC50 of 2.3 nM. Further, the Emax under setting [1] is 100%.
As for `C[C@@H](NC(=O)c1cn(-c2c(F)cc(F)cc2F)c2nc(N3C[C@@H](O)[C@H](O)C3)c(F)cc2c1=O)C1CC1` [Example 19, N-[(1R)-1-cyclopropylethyl]-7-[(3R,4R)-3,4-dihydroxypyrrolidin-1-yl]-6-fluoro-4-oxo-1-(2,4,6-trifluorophenyl)-1,4-dihydro-1,8-naphthyridine-3-carboxamide], the EC50 was found to be 16 nM. The compound further displayed an Emax under setting [1] of 98%.
On the same counts, the results for `O=C(NC(C(F)(F)F)C(F)(F)F)c1cn(-c2ncc(F)cc2F)c2nc(N3CCC(CO)(CO)CC3)c(F)cc2c1=O` [Example 195, 7-[4,4-bis(hydroxymethyl)piperidin-1-yl]-1-(3,5-difluoropyridin-2-yl)-6-fluoro-N-(1,1,1,3,3,3-hexafluoropropan-2-yl)-4-oxo-1,4-dihydro-1,8-naphthyridine-3-carboxamide] are 58 nM and 100%.
In turn, `CC[C@H](NC(=O)c1cn(-c2c(F)cccc2F)c2nc(N(C)CCO)c(F)cc2c1=O)C(F)(F)F` [Example 4, 1-(2,6-Difluorophenyl)-6-fluoro-7-[(2-hydroxyethyl)(methyl)amino]-4-oxo-N-[(2S)-1,1,1-trifluorobutan-2-yl]-1,4-dihydro-1,8-naphthyridine-3-carboxamide] yielded an EC50 of 38 nM. This compound also displayed an Emax under setting [1] of 89%.
Regarding `CC(NC(=O)c1cn(-c2c(F)cc(F)cc2F)c2nc(N3CCC4(C3)NC(=O)NC4=O)c(F)cc2c1=O)C(F)(F)C(F)(F)F` (stereo not shown) [Example 235, 7-(2,4-Dioxo-1,3,7-triazaspiro[4.4]non-7-yl)-6-fluoro-4-oxo-N-[3,3,4,4,4-pentafluorobutan-2-yl]-1-(2,4,6-trifluorophenyl)-1,4-dihydro-1,8-naphthyridine-3-carboxamide], the EC50 amounted to 4 nM. Moreover, under setting [1], the Emax was determined as 92%.
In turn, `CC[C@@H](NC(=O)c1cn(-c2c(F)cc(F)cc2F)c2nc(N3C[C@@H](O)[C@@H](O)C3)c(F)cc2c1=O)C(F)(F)F` [Example 155, 7-[(3R,4S)-3,4-Dihydroxypyrrolidin-1-yl]-6-fluoro-4-oxo-N-[(2R)-1,1,1-trifluorobutan-2-yl]-1-(2,4,6-trifluorophenyl)-1,4-dihydro-1,8-naphthyridine-3-carboxamide] registered an EC50 of 11 nM. The same compound displayed an Emax under setting [1] of 100%.
Compound `CCC(CC)(CC)NC(=O)c1cn(-c2c(F)cc(F)cc2F)c2nc(N3C[C@@H](O)[C@H](O)C3)c(F)cc2c1=O` [Example 87, 7-[(3R,4R)-3,4-Dihydroxypyrrolidin-1-yl]-N-(3-ethylpentan-3-yl)-6-fluoro-4-oxo-1-(2,4,6-tri-fluorophenyl)-1,4-dihydro-1,8-naphthyridine-3-carboxamide] had an EC50 of 1.4 nM. The Emax under setting [1] turned out to be 100%.
On to `CC(C)C(NC(=O)c1cn(-c2c(F)cc(F)cc2F)c2nc(N3CC[C@H](O)C3)c(F)cc2c1=O)C(F)(F)F` (single isomer, unassigned) [Example 140], for which the EC50 stood at 5.3 nM. For the same compound, under setting [1], the Efficiency stood at 95%.
The compound `CCC(C)(C)NC(=O)c1cn(-c2c(F)cc(F)cc2Cl)c2nc(N3C[C@@H](O)[C@H](O)C3)c(F)cc2c1=O` [Example 73, 1-(2-Chloro-4,6-difluorophenyl)-7-[(3R,4R)-3,4-dihydroxypyrrolidin-1-yl]-6-fluoro-N-(2-methylbutan-2-yl)-4-oxo-1,4-dihydro-1,8-naphthyridine-3-carboxamide] had an EC50 of 2.7 nM. Further, under setting [1], the Emax is 94%.
`CC[C@@H](NC(=O)c1cn(-c2c(F)cc(F)cc2F)c2nc(N3C[C@H](O)[C@@H](O)C3)c(F)cc2c1=O)C(F)(F)F` [Example 156, 7-[(3S,4S)-3,4-Dihydroxypyrrolidin-1-yl]-6-fluoro-4-oxo-N-[(2R)-1,1,1-trifluorobutan-2-yl]-1-(2,4,6-trifluorophenyl)-1,4-dihydro-1,8-naphthyridine-3-carboxamide] registered an EC50 of 11 nM. This compound also registered an Emax under setting [1] of 100%.
`CCC(NC(=O)c1cn(-c2c(F)cc(F)cc2F)c2nc(N3CC[C@H](O)C3)c(F)cc2c1=O)C(C)C` (mixture of isomers) [Example 116, 6-Fluoro-7-[(3S)-3-hydroxypyrrolidin-1-yl]-N-[2-methylpentan-3-yl]-4-oxo-1-(2,4,6-trifluoro-phenyl)-1,4-dihydro-1,8-naphthyridine-3-carboxamide] yielded an EC50 of 3.5 nM. Further, the Emax under setting [1] was 97%.
`CC(C)(NC(=O)c1cn(-c2c(F)cc(F)cc2F)c2nc(N3CC[C@H](O)C3)c(F)cc2c1=O)C(F)(F)F` [Example 125, 6-Fluoro-7-[(3S)-3-hydroxypyrrolidin-1-yl]-4-oxo-N-(1,1,1-trifluoro-2-methylpropan-2-yl)-1-(2,4,6-trifluorophenyl)-1,4-dihydro-1,8-naphthyridine-3-carboxamide] came in with an EC50 of 12 nM. Also, the Emax under setting [1] was 97%.
`O=C(NC(C1CC1)C(F)(F)C(F)(F)F)c1cn(-c2c(F)cc(F)cc2F)c2nc(N3CC4(COC4)C3)c(F)cc2c1=O` (single isomer, unassigned) [Example 204, N-[1-cyclopropyl-2,2,3,3,3-pentafluoropropyl]-6-fluoro-7-(2-oxa-6-azaspiro[3.3]hept-6-yl)-4-oxo-1-(2,4,6-trifluorophenyl)-1,4-dihydro-1,8-naphthyridine-3-carboxamide] showed an EC50 of 17 nM. The same compound registered an Emax under setting [1] of 97%.
The compound `CCC(NC(=O)c1cn(-c2c(F)cc(F)cc2F)c2nc(N3CC(CO)(CO)C3)c(F)cc2c1=O)C(F)(F)C(F)(F)F` (racemic) [Example 171, 7-[3,3-Bis(hydroxymethyl)azetidin-1-yl]-6-fluoro-4-oxo-N-[1,1,1,2,2-pentafluoropentan-3-yl]-1-(2,4,6-trifluorophenyl)-1,4-dihydro-1,8-naphthyridine-3-carboxamide] registered an EC50 of 1.3 nM. For the same compound, the Emax under setting [1] was determined as 95%.
With `CCC(C)(C)NC(=O)c1cn(-c2c(F)cc(F)cc2F)c2nc(N3C[C@@H](O)[C@@H](O)C3)c(F)cc2c1=O` [Example 79, 7-[(3R,4S)-3,4-Dihydroxypyrrolidin-1-yl]-6-fluoro-N-(2-methylbutan-2-yl)-4-oxo-1-(2,4,6-tri-fluorophenyl)-1,4-dihydro-1,8-naphthyridine-3-carboxamide], the half-maximal effective concentration (EC50) was 9.3 nM. This compound also registered an Emax under setting [1] of 99%.
As to `C[C@H](NC(=O)c1cn(-c2c(F)cc(F)cc2F)c2nc(N3C[C@@H](O)[C@H](O)C3)c(F)cc2c1=O)C1CC1` [Example 20, N-[(1S)-1-cyclopropylethyl]-7-[(3R,4R)-3,4-dihydroxypyrrolidin-1-yl]-6-fluoro-4-oxo-1-(2,4,6-trifluorophenyl)-1,4-dihydro-1,8-naphthyridine-3-carboxamide], the EC50 came to 13 nM. The compound further displayed an Emax under setting [1] of 92%.
In turn, `CCC(C)(CC)NC(=O)c1cn(-c2ncc(F)cc2F)c2nc(N3C[C@@H](O)[C@H](O)C3)c(F)cc2c1=O` [Example 76, 1-(3,5-Difluoropyridin-2-yl)-7-[(3R,4R)-3,4-dihydroxypyrrolidin-1-yl]-6-fluoro-N-(3-methylpentan-3-yl)-4-oxo-1,4-dihydro-1,8-naphthyridine-3-carboxamide] gave an EC50 of 29 nM. For the same compound, under setting [1], the Emax was 100%.
